{"source": "paper PMC7144234", "about": "“Antiproliferative chromone derivatives induce K562 cell death through endogenous and exogenous pathways” (Journal of Enzyme Inhibition and Medicinal Chemistry, 2020)", "key": {"K562 cells [1]": {"system": "K562 cells", "test": "Cell apoptosis assay (Annexin V-FITC/PI, flow cytometry)", "assay_type": "cell-based, human", "settings": "72 h", "method": "[…] 500 µL of binding buffer suspension cells, 5 µL of Annexin V-FITC, and 5 µL of PI were mixed incubated at room temperature, protected from light, and reacted for 5–15 min, then analysed with flow cytometry instrument to detect cell apoptosis."}, "Bax": {"system": "Bax", "test": "Human Apoptosis Array kit, Bax expression in K562 cells", "assay_type": "cell-based", "settings": "K562, 2 µM, 24 h", "method": "(§1) The relative expression levels of 35 apoptosis-related proteins were evaluated using Human Apoptosis Array kit (R&D Systems, Abingdon, UK) in K562 cells. Proteins were extracted according to the manufacturer’s protocol from cells treated for 24 h with compound 15a (2 µM). The tool is fast, sensitive and economical, with 2.0 ml of array buffer added to each well, followed by array, The capture antibodies are retained in their specific locations, then incubated, transferred, diluted, added to Streptavidin-HRP, shaken. The platform shaker was incubated on the plate for 30 min, then the membrane was removed, 1 ml of the prepared Chemi Reagent Mix was evenly pipetted onto each membrane, incubated, the excess Chemi Reagent Mix was removed, and the membrane was placed in a self-developing film cartridge, exposed to X-ray film for 1–10 min. The positive signals seen on developed film can be quickly identified by placing the transparency overlay template on the array image and aligning it with the pairs of reference spots in three corners of each array. Creating templates, exporting files, averaging signals, finding backgrounds, comparing corresponding signals on the array to determine relative changes in apoptosis-related protein levels."}, "K562 cells [2]": {"system": "K562 cells", "test": "Cell cycle analysis (PI staining, flow cytometry)", "assay_type": "cell-based, human", "settings": "72 h", "method": "The cells in the logarithmic growth phase were digested into six-well plates. The next day, cells were treated with different concentrations (0, 0.8, 1.6, 3.2 µM) of compound 15a. After 72 h, 5 × 10^5 cells were collected and fixed with a volume fraction of 70% ethanol for 2 h (or overnight), washed the fixative with PBS, added 100 µL RNase A in 37 °C water bath for 30 min, and finally 400 µL of PI stain was added, after 30 min under the dark at 4 °C, the cytometry was used to record the red fluorescence at the excitation wavelength of 488 nm, and the cell cycle distribution of the DNA content was evaluated."}, "PBMC": {"system": "PBMC", "test": "MTT assay, peripheral blood mononuclear cells", "assay_type": "cell-based, human", "settings": "72 h", "method": "(§2) The colorimetric MTT (3-(4,5-dimethylthiazol-2-yl)-2,5-diphenyltetrazolium bromide) assay was used to measure the cell viability of all of the above cell lines following treatment with target hybrids. Exponentially growing cells were added into 96-well plates at a concentration of 2000–4000 cells per well. Following attachment the cells were treated with varying concentrations (64, 16, 4, 1, 0.25, 0.0625 and 0.015625 µM) of target compounds in media and were kept for incubation for 72 h. MTT (20 µL, 5 mg/mL in PBS) was added to each well and the cells were incubated for another 3 h at 37 °C. Then the medium was removed, followed by the addition of 150 µL DMSO for each well. After that, the absorbance (OD) data of each well at 570 nm wavelength were measured by a Microplate Reader (BIO-RAD), and half inhibition rates (IC50) were calculated[59]^,[60]."}, "MCF-7": {"system": "MCF-7", "test": "MTT antiproliferative assay, MCF-7", "assay_type": "cell-based, human", "settings": "72 h, breast carcinoma MCF-7", "method": "as §2"}, "L-02": {"system": "L-02", "test": "MTT assay, normal hepatic L-02 cell line", "assay_type": "cell-based", "settings": "72 h, human normal hepatic L-02 cell line", "method": "as §2"}, "K562": {"system": "K562", "test": "MTT antiproliferative assay, K562", "assay_type": "cell-based, human", "settings": "72 h, chronic myeloid leukaemia K562", "method": "as §2"}, "K562 cells [3]": {"system": "K562 cells", "test": "Hoechst 33258 staining, morphological analysis", "assay_type": "cell-based, human", "method": "K562 cells were incubated with different concentrations (0, 0.8, 1.6 and 3.2 µM) of 15a for a period of time, the medium containing the compound was removed, the cell smear was naturally dried, and immersed in 4% paraformaldehyde for 30 min or overnight to improve cell permeability, then soaked in PBS, washed for three times, added appropriate amount of Hoechst 33258 staining solution, fully covered, allowed to stand at room temperature for 10 min, finally immersed in PBS again, washed three times and sealed. Anti-fluorescence quenching after the liquid was sealed, the staining results were observed under a fluorescence microscope."}, "HCT-116": {"system": "HCT-116", "test": "MTT antiproliferative assay, HCT-116", "assay_type": "cell-based, human", "settings": "72 h, colorectal carcinoma HCT-116", "method": "as §2"}, "HtrA2": {"system": "HtrA2", "test": "Human Apoptosis Array kit, HtrA2 expression in K562 cells", "assay_type": "cell-based", "settings": "K562, 2 µM, 24 h", "method": "as §1"}, "Bad": {"system": "Bad", "test": "Human Apoptosis Array kit, Bad expression in K562 cells", "assay_type": "cell-based", "settings": "K562, 2 µM, 24 h", "method": "as §1"}, "Claspin": {"system": "Claspin", "test": "Human Apoptosis Array kit, claspin expression in K562 cells", "assay_type": "cell-based", "settings": "K562, 2 µM, 24 h", "method": "as §1"}, "Catalase": {"system": "Catalase", "test": "Human Apoptosis Array kit, catalase expression in K562 cells", "assay_type": "cell-based", "settings": "K562, 2 µM, 24 h", "method": "as §1"}, "B16": {"system": "B16", "test": "MTT antiproliferative assay, B16", "assay_type": "cell-based", "settings": "72 h, melanoma B16", "method": "as §2"}, "HepG2": {"system": "HepG2", "test": "MTT antiproliferative assay, HepG2", "assay_type": "cell-based, human", "settings": "72 h, hepatoma HepG2", "method": "as §2"}}, "data": [{"substance": "4-((1-(6-Methoxy-4-oxo-4H-chromene-3-carboxamido)propan-2-yl)oxy)-3-(phenylsulfonyl)-1,2,5-oxadiazole 2-oxide [15a]", "values": [{"measurement": "apoptotic rate", "setting": "K562 cells [1]; K562, 0.8 µM", "value": 16.28, "unit": "%"}, {"measurement": "apoptotic rate", "setting": "K562 cells [1]; K562, 1.6 µM", "value": 20.56, "unit": "%"}, {"measurement": "apoptotic rate", "setting": "K562 cells [1]; K562, 3.2 µM", "value": 51.87, "unit": "%"}, {"measurement": "expression of Bax compared to the control", "setting": "Bax", "value": "increased expression"}, {"measurement": "cells in G1 phase", "setting": "K562 cells [2]; K562, 0.8 µM", "value": 48.84, "unit": "%"}, {"measurement": "cells in G2 phase", "setting": "K562 cells [2]; K562, 0.8 µM", "value": 10.71, "unit": "%"}, {"measurement": "cells in S phase", "setting": "K562 cells [2]; K562, 0.8 µM", "value": 40.45, "unit": "%"}, {"measurement": "cells in G1 phase", "setting": "K562 cells [2]; K562, 1.6 µM", "value": 41.43, "unit": "%"}, {"measurement": "cells in G2 phase", "setting": "K562 cells [2]; K562, 1.6 µM", "value": 11.89, "unit": "%"}, {"measurement": "cells in S phase", "setting": "K562 cells [2]; K562, 1.6 µM", "value": 46.68, "unit": "%"}, {"measurement": "cells in G1 phase", "setting": "K562 cells [2]; K562, 3.2 µM", "value": 36.21, "unit": "%"}, {"measurement": "cells in G2 phase", "setting": "K562 cells [2]; K562, 3.2 µM", "value": 13.51, "unit": "%"}, {"measurement": "cells in S phase", "setting": "K562 cells [2]; K562, 3.2 µM", "value": 50.28, "unit": "%"}, {"measurement": "IC50", "setting": "PBMC", "value": "> 50", "unit": "µM"}, {"measurement": "IC50", "setting": "MCF-7", "value": "13.7 ± 0.33", "unit": "µM"}, {"measurement": "IC50", "setting": "L-02", "value": "36.9 ± 0.62", "unit": "µM"}, {"measurement": "IC50", "setting": "K562", "value": "1.61 ± 0.18", "unit": "µM"}, {"measurement": "cell morphology after Hoechst 33258 staining", "setting": "K562 cells [3]; K562, 3.2 µM", "value": "cell membranes were ruptured and the nuclei were fragmented"}, {"measurement": "cell morphology after Hoechst 33258 staining", "setting": "K562 cells [3]; K562, 0.8 and 1.6 µM", "value": "typical apoptotic morphology"}, {"measurement": "IC50", "setting": "HCT-116", "value": "6.74 ± 0.9", "unit": "µM"}, {"measurement": "expression level of HtrA2", "setting": "HtrA2", "value": "increased the expression levels"}, {"measurement": "expression of Bad compared to the control", "setting": "Bad", "value": "increased expression"}, {"measurement": "expression of Claspin", "setting": "Claspin", "value": "increased"}, {"measurement": "expression of Catalase", "setting": "Catalase", "value": "up-regulated"}, {"measurement": "IC50", "setting": "B16", "value": "9.72 ± 0.52", "unit": "µM"}, {"measurement": "IC50", "setting": "HepG2", "value": "4.86 ± 0.39", "unit": "µM"}]}]}
